Literature values, collected in patent US20200253945A1, “DELAYED RELEASE DEFERIPRONE TABLETS AND METHODS OF USING THE SAME” (Chiesi Farmaceutici S.p.A., priority 2017, published 2020).

How the values were obtained:
[1] = in vivo
[2] = patients who begin therapy with deferiprone

For `Cc1c(O)c(=O)ccn1C` [deferiprone, Deferiprone], the elimination half-life [1] is given as “about 2 hours” and the “patients with gastric distress” value [2] is given as 15-30%.
